Assay results taken from PMC8251916 (Chemistry (Weinheim an Der Bergstrasse, Germany), 2021).

What was measured:
[1] = system: HeLa cervical carcinoma cells; experiment: Cytotoxicity, alamarBlue assay, HeLa; format: cell-based, human; details: for EC50: Homo sapiens, HeLa, 72 h incubation, alamarBlue fluorescence, read-out: absolute EC50 HeLa
Experimental: (§1) Doxorubicin, suramin and miltefosine were used as control compounds.[ ^6b , ^9 ] After incubation with varied concentrations of the compounds for 72 h, cell viability was measured using either an alamarBlue™ assay (for MRC5, HeLa and T. brucei) or MTT assay (for L. major). Absolute EC50 values and selectivity indexes were then calculated from dose‐response curves (Table 2 and S14). […]
(§2) Cell culture reagents were purchased from Thermo Fisher Scientific (Waltham, MA, USA) and used as-is. The Dulbecco’s Minimal Essential Medium (DMEM) formulation contained either high glucose (4.5 g/L, catalogue number: 10569) or low glucose (1 g/L, catalogue number:
(§3) 10567). RPMI-1640 was provided without sodium pyruvate and with L-glutamine (catalogue number: 11875). Phosphate Buffered Saline (PBS) contained NaCl (9 g/L), KH2PO4 (144 mg/L) and Na2HPO4-7.H2O (795 mg/L, catalogue number: 10010049). TrypLE Express™ was provided with EDTA (458 mg/L) and without Phenol Red (catalogue number: 12604021).
MRC-5 cells (human lung fibroblasts) were grown in monolayer (37 °C, 5 % CO2 and 100 % humidity) in DMEM medium (1 g/L glucose), supplemented with 10% heat-inactivated Fetal Bovine Serum (hiFBS), 2 mM L-glutamine, 100 U / mL penicillin and […] streptomycin. HeLa (Human cervical carcinoma cell line) cells were maintained at 37 °C and 5 % CO2 in high glucose DMEM (4.5 g / L) supplemented with 10% hiFBS, 100 U / ml penicillin, […] streptomycin, 2 mM L-glutamine and non-essential aminoacids (1X).
(§4) Cells were cultured according to ATCC recommendations and were used for the experiments while in the exponential growth phase. […]
(§5) Cytotoxicity was measured through the alamarBlue® assay (Thermo Fisher Scientific).[S6,S13] Briefly, 5×10^3 MRC-5 or HeLa cells were seeded in 96-wells plates (100 µL / well) in the presence of increasing concentrations of compound. After 72 hrs of incubation at 37 °C, 20 µL of alamarBlue® solution (110 ng / ml) was added to each well and cells were reincubated for 4 hrs at 37 °C. Then, 50 µL of 3 % SDS were added to each well. The plate was incubated at 37 °C for an extra hour and then analysed by fluorescence with an Infinite F200 plate reader (TECAN Austria, GmbH). The excitation wavelength was fixed at 550 nm and the emission wavelength at 590 nm. The results are expressed as the concentration of compound that reduces

T. brucei = experiment: Trypanocidal activity, alamarBlue assay; format: cell-based; details: for EC50: Trypanosoma brucei, 72 h incubation, alamarBlue fluorescence, read-out: absolute EC50 T. brucei
Experimental: as §1, §2, §3
MRC-5 cells (human lung fibroblasts) were grown in monolayer (37 °C, 5 % CO2 and 100 % humidity) in DMEM medium (1 g/L glucose), supplemented with 10% heat-inactivated Fetal Bovine Serum (hiFBS), 2 mM L-glutamine, 100 U / mL penicillin and […]
streptomycin. […]
as §4
hiFBS. Parasites were split every other day and maintained in their experimental growth phase (below 2 million parasites per mL).
as §5

[2] = system: F10T-K+ (hairpin duplex DNA); experiment: FRET melting assay, hairpin duplex DNA; format: binding; details: 200 nM DNA, PIPER and 3 not reliable (spectral overlap)
Experimental: (§6) With the library in hand, we began our investigation into G4 stabilization by conducting a Förster resonance energy transfer (FRET) melting assay to assess DNA stabilization using the procedure outlined by De Cian et. al. ^[13] […] The sequences examined (at 200 nM) were the human telomeric G4 in potassium buffer (F21T‐K^+, mixed parallel/hybrid G4) ^[14] and sodium buffer (F21T‐Na^+, antiparallel G4), ^[15] the c‐Myc promoter G‐quadruplex (FmycT‐K^+, parallel G4), ^[16] a polymorphic G4 found in T. brucei (FEBR1T‐K^+, a mixed G4 topology), ^[6b] and a hairpin duplex DNA sequence (F10T‐K^+). Together, these sequences represent targets for therapeutic intervention to treat parasitic infections, ^[6b] or cancer. ^[1b] The topology of each sequence was confirmed independently via circular dichroism (CD, Figure S1). […]
(§7) FRET melting assays were performed to assess ligand affinity for duplex and G-quadruplex
(§8) DNA. Briefly, oligonucleotides of interest were obtained labelled at the 5’ and 3’ ends with FAM (a fluorescence donor) and TAMRA (a fluorescence quencher), respectively. In the folded state, proximity of the donor and quencher result in no observed fluorescence from FAM, since energy is transferred non-radiatively to TAMRA by FRET. As the temperature is raised and the secondary structure denatures, the fluorophores move further apart and the fluorescence signal increases. From the resulting curve, the characteristic melting temperature (Tmax, also referred to as Tm) is defined as the temperature which corresponds to the maxima of the first derivative of the normalised fluorescence signal. The change in melting temperature (ΔTm) induced by the presence of a small molecule ligand provides an indication of the ligand’s ability to stabilise the DNA structure. FRET experiments were performed according to the […]
(§9) procedure reported by De Cian and co-workers[S3] on a Stratagene MX3005P. The method consisted of holding at 25 °C for 5 min, before heating at 1 °C/min to 96 °C in 1 °C increments, […]

[3] = system: F21T-Na+ (human telomeric G-quadruplex, antiparallel); experiment: FRET melting assay, human telomeric G4 in sodium buffer; format: binding; details: 200 nM DNA, PIPER and 3 not reliable (spectral overlap)
Experimental: as §6, §7, §8, §9

[4] = system: FmycT-K+ (c-Myc promoter G-quadruplex, parallel); experiment: FRET melting assay, c-Myc promoter G4; format: binding; details: 200 nM DNA, PIPER and 3 not reliable (spectral overlap)
Experimental: as §6, §7, §8, §9

[5] = system: F21T-K+ (human telomeric G-quadruplex, mixed parallel/hybrid); experiment: FRET melting assay, human telomeric G4 in potassium buffer; format: binding; details: 200 nM DNA, PIPER and 3 not reliable (spectral overlap)
Experimental: as §6, §7, §8, §9

[6] = 5 μM ligand, 10 mM KCl, 90 mM LiCl, 10 mM Li cacodylate
[7] = selectivity index from EC50 values
[8] = 5 μM ligand, 100 mM NaCl, 10 mM Li cacodylate
[9] = 5 μM ligand, 1 mM KCl, 99 mM LiCl, 10 mM Li cacodylate

| Structure (SMILES) | EC50 [1] | EC50 (T. brucei) | ΔTm F10T-K+ ([2]; 1 µM ligand) | ΔTm F10T-K+ [2, 6] | ΔTm F10T-K+ ([2]; 10 µM ligand) | SI (MRC5/HeLa) [1, 7] | ΔTm F21T-Na+ ([3]; 1 µM ligand) | ΔTm F21T-Na+ [3, 8] | ΔTm F21T-Na+ ([3]; 10 µM ligand) | ΔTm FmycT-K+ ([4]; 1 µM ligand) | ΔTm FmycT-K+ [4, 9] | ΔTm FmycT-K+ ([4]; 10 µM ligand) | SI (MRC5/T. brucei) (T. brucei; [7]) | ΔTm F21T-K+ ([5]; 1 µM ligand) | ΔTm F21T-K+ [5, 6] | ΔTm F21T-K+ ([5]; 10 µM ligand) |
| --- | --- | --- | --- | --- | --- | --- | --- | --- | --- | --- | --- | --- | --- | --- | --- | --- |
| CN1CCN(CCCN2C(=O)c3ccc4c5c(ccc(c35)C2=O)C(=O)N(CCCN2CCN(C)CC2)C4=O)CC1 [Compound 1] | 0.5 ± 0.05 µM | 0.61 ± 0.3 µM | 0 ± 1 °C | 1±1 °C | 3 ± 1 °C |  |  |  |  |  |  |  |  |  |  |  |
| CN1CCN(CCCN2C(=O)c3ccc4c5ccc6c7c(ccc(c8ccc(c3c48)C2=O)c75)C(=O)N(CCCN2CCN(C)CC2)C6=O)CC1 [Compound 3] | 53 ± 6.2 µM | 0.027 ± 0.01 µM | 1 ± 1 °C | 6±2 °C | 13 ± 2 °C | 0.04 | 18 ± 2 °C | 35±4 °C | > 40 °C | 24 ± 1 °C | 37±2 °C | > 40 °C | 78 | 10 ± 1 °C | 34±1 °C | 33 ± 1 °C |
| CN1CCN(CCCN2C(=O)c3ccc(Oc4ccc(C(C)(C)c5ccc(Oc6ccc7c(c6)C(=O)N(CCCN6CCN(C)CC6)C7=O)cc5)cc4)cc3C2=O)CC1 [Compound 9] | 29 ± 3.5 µM | 33 ± 24 µM |  | 0±1 °C |  |  |  | −4±1 °C | 6 ± 4 °C |  | −1±2 °C | 10 ± 3 °C |  |  | −1±1 °C | 8 ± 3 °C |
| CN1CCN(CCCNC(=O)c2ccc(Oc3ccc(C(C)(C)c4ccc(Oc5ccc(C(=O)NCCCN6CCN(C)CC6)c(C(=O)NCCCN6CCN(C)CC6)c5)cc4)cc3)cc2C(=O)NCCCN2CCN(C)CC2)CC1 [Compound 11] | 14 ± 1 µM | 2.8 ± 2 µM |  | 0±1 °C | 1 ± 1 °C |  | -4 ± 1 °C | 1±1 °C | 9 ± 2 °C | -3 ± 1 °C | 5±1 °C | 10 ± 2 °C |  | -2 ± 1 °C | 7±2 °C | 9 ± 1 °C |
